{
  "source": "paper PMC11149917",
  "about": "“Translational and Therapeutic Evaluation of RAS-GTP Inhibition by RMC-6236 in RAS-Driven Cancers” (Cancer Discovery, 2024)",
  "key": {"[1]": {"system": "KRAS^G12V and KRAS^G12D xenograft models (NSCLC, PDAC, colorectal cancer)", "experiment": "Mouse clinical trial (MCT), genotype subsets", "assay_type": "in vivo", "experimental": "To generate subcutaneous CDX, each mouse was inoculated at the right flank with tumor cells (2 × 10^6 − 1 × 10^7) in 100 to 200 µL of media/PBS Supplemented with Matrigel. Treatments were initiated when average tumor volume reached 130 to 200 mm^3 for tumor growth evaluation and 350 to 650 mm^3 for single-dose pharmacokinetic/pharmacodynamic (PK/PD). Tumor diameter was measured in two dimensions using a digital caliper, and the tumor volume in mm^3 was calculated using the formula: Volume = ((width)^2 × length)/2. Mice in the study were weighed and tumors were measured twice weekly.\nThe human primary cancer PDX models were generated using fresh tumor fragments obtained from the hospital with written informed consent from patients in accordance with protocols approved by the Hospital's Institutional Ethical Committee. Tumor fragments were subcutaneously serial passaged in immunodeficient mice and cryopreserved for further use. Recovered tumor fragments were implanted into the right flanks of immunodeficient mice; treatment started when the average tumor volume reached 150 to 350 mm^3.\nTumor-bearing animals were randomized and assigned into groups (n = 1–10/group). The vehicle at 10 mL/kg or RMC-6236 at indicated doses was administered via oral gavage daily, and animals were treated for 28 days, or up to 90 days if PFS was being assessed. […] For single-dose PKPD study, mice were randomized and assigned into groups (n = 3/dose/time point). A single dose of RMC-6236 was administered orally at either 3, 10, or 25 mg/kg. Blood and tissues, including the tumor, brain, colon, ear skin, and muscle, were harvested at indicated time points. Whole blood was collected in K2EDTA Microtainer tubes, incubated for 5 minutes, and snap-frozen in liquid nitrogen. The tissue was either fixed in 10% formalin or snap-frozen in liquid nitrogen for further analysis.\nIn tumor volume plots, the average tumor volume of each group was plotted over the course after implantation (except for PDX models, where the x-axis started on the first day of treatment). Control and RMC-6236 groups were compared by two-way repeated-measures ANOVA on the last measurement day of the control group. Percentage change in body weight for each animal on a given day was determined as [(body weight on test article administration end date/body weight on test article administration start date) −1] × 100. The percentage mean tumor volume change from baseline was graphed in the waterfall plots. The mRECIST score was determined based on % mean tumor volume change, mCR is more than 80% regression, mPR is between 30% and 80% regression, mSD is between 30% growth and 30% regression, mPD is more than 30% growth. Progression is defined as tumor volume doubling from baseline and represented with Kaplan–Meier plots. […]"}, "[2]": {"system": "panel of 78 cancer cell lines", "experiment": "Cell panel 3D methylcellulose CellTiter-Glo proliferation", "assay_type": "cell-based", "conditions": "Homo sapiens", "experimental": "A panel of 78 cancer cell lines harboring mutant and wild-type RAS was selected for screening at Crown Bioscience (Supplementary Table S2). The panel consisted of cell lines with any substitution at position 12 of KRAS, cell lines with any substitutions at position 61 of NRAS, and cell lines with a BRAF^V600E mutation. […] Cells were incubated for 120 hours prior to measurement of adenosine triphosphate (ATP) levels using the CellTiter-Glo Luminescent Cell Viability Assay (CTG; Promega, G7572), a method of determining the number of metabolically active cells based on quantitation of cellular ATP, according to the manufacturer's instructions. To measure induction of apoptosis, cells were incubated with RMC-6236 for 48 hours prior to measuring cleavage of a proluminescent caspase-3/7 DEVD-aminoluciferin substrate using the CaspaseGlo-3/7 Assay (Promega, G8092) according to the manufacturer’s instructions."}, "[3]": {"conditions": "21 KRAS^G12V models, 25 mg/kg daily"}},
  "note": "pEC50: −log10 of the molar value. Read-outs that look alike come from different tables or passages of the source.",
  "data": [
    {"compound": "CCn1c(-c2cc(N3CCN(C)CC3)cnc2[C@H](C)OC)c2c3cc(ccc31)-c1csc(n1)C[C@H](NC(=O)[C@H]1C[C@@H]1C)C(=O)N1CCC[C@H](N1)C(=O)OCC(C)(C)C2", "note": "[RMC-6236]", "values": [
      {"measurement": "Cox Proportional Hazard Ratio, PFS of KRAS^G12V vs KRAS^G12D models on RMC-6236", "setting": "[1]; 25 mg/kg daily up to 90 days, 95% interval 0.069–0.454", "value": 0.178},
      {"measurement": "disease control rate (DCR), mRECIST", "setting": "[1]; [3]", "value": 95, "unit": "%"},
      {"measurement": "overall response rate (ORR), mRECIST", "setting": "[1]; [3]", "value": 71, "unit": "%"},
      {"measurement": "models with tumor relapse on long-term dosing (more than 60 days)", "setting": "[1]; models mPR or mCR at response calling date, NSCLC, PDAC, colorectal cancer", "value": "5 of 20"},
      {"measurement": "pEC50", "setting": "[2]; A549, A549, KRAS G12S, Lung, read-out: Proliferation Inhibition (EC50)", "value": 7.26},
      {"measurement": "pEC50", "setting": "[2]; A-375, A375, BRAF V600E, Skin, read-out: Proliferation Inhibition (EC50)", "value": "< 7.00"},
      {"measurement": "pEC50", "setting": "[2]; A-427, A427, KRAS G12D, Lung, read-out: Proliferation Inhibition (EC50)", "value": 7.01},
      {"measurement": "pEC50", "setting": "[2]; AGS, KRAS G12D, Stomach, read-out: Proliferation Inhibition (EC50)", "value": 8.49},
      {"measurement": "pEC50", "setting": "[2]; ASH3, NRAS Q61R, Head and Neck/Thyroid, read-out: Proliferation Inhibition (EC50)", "value": 7.04},
      {"measurement": "pEC50", "setting": "[2]; ASPC1, ASPC1, KRAS G12D, Pancreas, read-out: Proliferation Inhibition (EC50)", "value": 8.16},
      {"measurement": "pEC50", "setting": "[2]; CAL-62, CAL62, KRAS G12R, Head and Neck/Thyroid, read-out: Proliferation Inhibition (EC50)", "value": 7.72},
      {"measurement": "pEC50", "setting": "[2]; CAPAN-1, CAPAN1, KRAS G12V, Pancreas, read-out: Proliferation Inhibition (EC50)", "value": 8.34},
      {"measurement": "pEC50", "setting": "[2]; CFPAC-1, CFPAC1, KRAS G12V, Pancreas, read-out: Proliferation Inhibition (EC50)", "value": 7.82},
      {"measurement": "pEC50", "setting": "[2]; CHP-212, CHP212, NRAS Q61K, Brain and Nerves, read-out: Proliferation Inhibition (EC50)", "value": 7.66},
      {"measurement": "pEC50", "setting": "[2]; COLO 201, COLO201, BRAF V600E, Intestine/Large/Colorectum, read-out: Proliferation Inhibition (EC50)", "value": "< 7.00"},
      {"measurement": "pEC50", "setting": "[2]; COR-L23, CORL23, KRAS G12V, Lung, read-out: Proliferation Inhibition (EC50)", "value": 8.07},
      {"measurement": "pEC50", "setting": "[2]; Calu-1, CALU1, KRAS G12C, Lung, read-out: Proliferation Inhibition (EC50)", "value": 8.68},
      {"measurement": "pEC50", "setting": "[2]; Capan-2, CAPAN2, KRAS G12V, Pancreas, read-out: Proliferation Inhibition (EC50)", "value": 8.24},
      {"measurement": "pEC50", "setting": "[2]; CoC1, COC1, KRAS G12D, Ovary, read-out: Proliferation Inhibition (EC50)", "value": 7.24},
      {"measurement": "pEC50", "setting": "[2]; HCC15, HCC15, NRAS Q61K, Lung, read-out: Proliferation Inhibition (EC50)", "value": "< 7.00"},
      {"measurement": "pEC50", "setting": "[2]; HCC44, HCC44, KRAS G12C, Lung, read-out: Proliferation Inhibition (EC50)", "value": 8.48},
      {"measurement": "pEC50", "setting": "[2]; HEC-1-A, HEC1A, KRAS G12D, Uterus, read-out: Proliferation Inhibition (EC50)", "value": 7.35},
      {"measurement": "pEC50", "setting": "[2]; HM7, KRAS G12D, Intestine/Large/Colorectum, read-out: Proliferation Inhibition (EC50)", "value": "< 7.00"},
      {"measurement": "pEC50", "setting": "[2]; HPAC, KRAS G12D, Pancreas, read-out: Proliferation Inhibition (EC50)", "value": 7.13},
      {"measurement": "pEC50", "setting": "[2]; HPAF-II, HPAFII, KRAS G12D, Pancreas, read-out: Proliferation Inhibition (EC50)", "value": 8.20},
      {"measurement": "pEC50", "setting": "[2]; HT-1080, HT1080, NRAS Q61K, Soft tissue, read-out: Proliferation Inhibition (EC50)", "value": 8.12},
      {"measurement": "pEC50", "setting": "[2]; HepG2, HEPG2, NRAS Q61L, Liver, read-out: Proliferation Inhibition (EC50)", "value": 7.64},
      {"measurement": "pEC50", "setting": "[2]; HuCCT-1, HUCCT1, KRAS G12D, Liver/Bile duct, read-out: Proliferation Inhibition (EC50)", "value": 7.59},
      {"measurement": "pEC50", "setting": "[2]; HuP-T4, HUPT4, KRAS G12V, Pancreas, read-out: Proliferation Inhibition (EC50)", "value": 7.72},
      {"measurement": "pEC50", "setting": "[2]; KP4, KRAS G12D, Pancreas, read-out: Proliferation Inhibition (EC50)", "value": 7.51},
      {"measurement": "pEC50", "setting": "[2]; KRAS^G12X cells, read-out: median EC50, cell growth inhibition", "value": 8.10},
      {"measurement": "pEC50", "setting": "[2]; KYSE-410, KYSE410, KRAS G12C, HN/Esophagus, read-out: Proliferation Inhibition (EC50)", "value": 7.20},
      {"measurement": "pEC50", "setting": "[2]; LCLC-97TM1, LCLC97TM1, KRAS G12V, Lung, read-out: Proliferation Inhibition (EC50)", "value": 8.96},
      {"measurement": "pEC50", "setting": "[2]; LS174T, KRAS G12D, Intestine/Large/Colorectum, read-out: Proliferation Inhibition (EC50)", "value": "< 7.00"},
      {"measurement": "pEC50", "setting": "[2]; LS180, LS180, KRAS G12D, Intestine/Large/Colorectum, read-out: Proliferation Inhibition (EC50)", "value": 7.06},
      {"measurement": "pEC50", "setting": "[2]; LS-123, LS123, KRAS G12S, Intestine/Large/Colorectum, read-out: Proliferation Inhibition (EC50)", "value": 8.42},
      {"measurement": "pEC50", "setting": "[2]; LS-513, LS513, KRAS G12D, Intestine/Large/Colorectum, read-out: Proliferation Inhibition (EC50)", "value": 8.15},
      {"measurement": "pEC50", "setting": "[2]; MIA PaCa-2, MIAPACA2, KRAS G12C, Pancreas, read-out: Proliferation Inhibition (EC50)", "value": 7.21},
      {"measurement": "pEC50", "setting": "[2]; NCI-H23, NCIH23, KRAS G12C, Lung, read-out: Proliferation Inhibition (EC50)", "value": 8.15},
      {"measurement": "pEC50", "setting": "[2]; NCI-H358, NCIH358, KRAS G12C, Lung, read-out: Proliferation Inhibition (EC50)", "value": 8.41},
      {"measurement": "pEC50", "setting": "[2]; NCI-H441, NCIH441, KRAS G12V, Lung, read-out: Proliferation Inhibition (EC50)", "value": 8.59},
      {"measurement": "pEC50", "setting": "[2]; NCI-H727, NCIH727, KRAS G12V, Lung, read-out: Proliferation Inhibition (EC50)", "value": 8.38}
    ]}
  ]
}
